Paper PMC3063489 (Molecular and biochemical parasitology, 2011)
Read-outs that look alike come from different tables or passages of the source.

Columns and labels:
GFP-SmDAT = GFP-SmDAT (Schistosoma mansoni, UniProt E9LD23); type: cell-based; details: COS-7 cells; for uptake of tritiated substrate by SmDAT: 100 nM of each substrate, normalized to dopamine uptake (Fig. 2A)
[1] = system: Schistosoma mansoni adult worms; details: adult worms treated with dopamine; cited from earlier work
hDAT = hDAT (Homo sapiens, UniProt Q01959); details: COS-7 cells
Sequence of hDAT (Q01959 whole entry): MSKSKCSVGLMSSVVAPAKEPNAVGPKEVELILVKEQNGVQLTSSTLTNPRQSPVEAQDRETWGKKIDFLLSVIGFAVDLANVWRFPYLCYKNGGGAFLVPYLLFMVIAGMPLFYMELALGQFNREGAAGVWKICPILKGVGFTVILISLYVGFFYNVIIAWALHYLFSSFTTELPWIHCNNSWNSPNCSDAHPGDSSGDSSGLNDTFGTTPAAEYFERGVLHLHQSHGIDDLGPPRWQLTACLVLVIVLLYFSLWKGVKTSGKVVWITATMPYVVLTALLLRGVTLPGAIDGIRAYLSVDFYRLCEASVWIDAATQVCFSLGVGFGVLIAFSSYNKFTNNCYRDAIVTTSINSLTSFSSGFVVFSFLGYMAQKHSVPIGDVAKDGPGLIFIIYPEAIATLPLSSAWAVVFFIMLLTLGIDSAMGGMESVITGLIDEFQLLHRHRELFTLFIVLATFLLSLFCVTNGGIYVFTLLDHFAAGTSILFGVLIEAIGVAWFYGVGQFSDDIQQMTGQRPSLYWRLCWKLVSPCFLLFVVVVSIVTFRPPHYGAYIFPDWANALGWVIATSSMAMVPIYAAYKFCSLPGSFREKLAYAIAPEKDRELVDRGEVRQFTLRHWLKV

Schistosoma = details: cited from earlier work

NC[C@H](O)c1ccc(O)c(O)c1 [Norepinephrine]
uptake of tritiated substrate by SmDAT (GFP-SmDAT): low but significant levels

NCCc1ccc(O)c(O)c1 [dopamine]
Vmax of dopamine uptake, GFP-SmDAT (GFP-SmDAT): 0.16 ± 0.04 pmol/well/min
Vmax of dopamine uptake, GFP-SmDAT (GFP-SmDAT; unit as printed in legend of Fig. 2): 0.16 ± 0.04 pmol/min
effect on adult worms [1]: relaxation of muscles and a lengthening of the worms
Vmax of dopamine uptake, hDAT (hDAT): 0.9 ± 0.2 pmol/well/min

O=C(C1CCCCC1)N1CC(=O)N2CCc3ccccc3C2C1 (stereo not shown) [praziquantel]
activity on immature worms and eggs (Schistosoma): not active

NCCc1c[nH]c2ccc(O)cc12 [serotonin]
uptake of tritiated substrate by SmDAT (GFP-SmDAT): could not detect any detectable levels
